Legend:
[1] = test system: HL 60 cells; test: Antiproliferative test: inhibition of growth of HL 60 cells; format: cell-based; conditions: concentrations 0.5 to 1 mM
Method: The tests were carried out on stabilized cell lines (HL 60 and others) in the absence of growth factors. The concentrations of butyric derivatives vary from 0.5 to 1 mM.
The following parameters were evaluated by "FASC Scan" scanning and flow cytometry:
incorporation of tritiated thymidine (exploration of cell metabolism);
incorporation of propylium iodide (determination of the phase of the cell cycle);

[2] = test system: γ chain of the haemoglobin; test: Level of γ chain of the haemoglobin in erythroleukaemic cell lines; format: cell-based; conditions: 0.70 mM (α-MAM-A), 0.35 mM (Xyli-C); for level of γ chain of the haemoglobin in the presence of A.P.A.A.P.: 10% without ester; for increase in level of γ chain of the haemoglobin: erythroleukaemic cell lines, normal human serum
Method: The following parameters were evaluated: level of γ chain of the haemoglobin (immunological quantitative determination by double antigen antibody reaction and by immunocytochemical quantitative determination in the presence of alkaline phosphatase-anti-alkaline phosphatase A.P.A.A.P.);

[3] = test system: foetal haemoglobin, in particular the γ chain; conditions: acids and their salts, cited from earlier work; for synthesis of foetal haemoglobin: in particular γ chain
[4] = 95 hours, cited from earlier work
[5] = cited from earlier work
[6] = cited from earlier work; remark: listed apart in the source

For `CCCC(=O)O[C@H]1O[C@H]([C@H](O)CO)[C@@H]2OC(C)(C)O[C@H]12` [α-MAM-A, O-n-butanoyl-2,3-O-isopropylidene-α-D-mannoside], which “% of inhibition of growth HL 60” value ([1]; 2 d.) is on record?
Its value is 40%.

And the “% of inhibition of growth HL 60” value ([1]; 5 d.)?
Its value is 80%.

And the “level of γ chain of the haemoglobin in the presence of A.P.A.A.P.” value [2]?
The value was 22%.

And the “increase in level of γ chain of the haemoglobin” value [2]?
The value was “increase the level of γ chain of the haemoglobin”.

For `CCCC(=O)OCC1OC(C)(C)OC1C(O)CO` (stereo not drawn) [MAXyli-C, 1-O-n-butanoyl-2,3-O-isopropylidenexylitol], which “% of inhibition of growth HL 60” value ([1]; 3 d.) is on record?
Its value is 80%.

What about the “% of inhibition of growth HL 60” value ([1]; 4 d.) of the same compound?
Its value is 90%.

Which results are given for `O=C(O)CCCc1ccccc1` [4-phenylbutyric acid]?
γ gene of human foetal haemoglobin [3]: induce the γ gene of human foetal haemoglobin; synthesis of foetal haemoglobin [3]: stimulate the synthesis of foetal haemoglobin

Which “γ gene of human foetal haemoglobin” value [3] does the source give for `O=C(O)Cc1ccccc1` [phenylacetic acid] here?
The value was “induce the γ gene of human foetal haemoglobin”.

And the “synthesis of foetal haemoglobin” value [3]?
Its value is “stimulate the synthesis of foetal haemoglobin”.

Which results are given for `CCCC(=O)O[C@@H]1[C@H]2OC(C)(C)O[C@H]2O[C@@H]1[C@H](O)CO` [3-O-n-butanoyl-1,2-O-isopropylidene-α-D-glucofuranose]?
5-O-n-butanoyl isomer in the non-deesterified fraction ([4]; pH=8.1, 25° C.): 4%; 6-O-n-butanoyl isomer in the non-deesterified fraction ([4]; pH=8.1, 25° C.): 90%; initial ester in the non-deesterified fraction ([4]; pH=8.1, 25° C.): 6%; deesterification ([4]; same conditions (pH=8.1, 25° C.), Goueth et al.): 20%; internal transesterification in solution [5]: undergoes an internal transesterification

What does the source list for `CCCC(=O)O` [n-butyric acid]?
in vivo plasma lifetime [6]: very short in vivo plasma lifetime; γ gene of human foetal haemoglobin [3]: induce the γ gene of human foetal haemoglobin; synthesis of foetal haemoglobin [3]: stimulate the synthesis of foetal haemoglobin

Which “% of inhibition of growth HL 60” value ([1]; 5 d.) does the source give for `CCCC(=O)OC[C@H](O)[C@@H](O)[C@H](O)CO` [Xyli-C, 1-O-n-butanoylxylitol] here?
The value was 70%.

And the “level of γ chain of the haemoglobin in the presence of A.P.A.A.P.” value [2]?
Its value is 17%.

What about the “increase in level of γ chain of the haemoglobin” value [2] of the same compound?
The value was “increase the level of γ chain of the haemoglobin”.
